Source: patent US4766148A, “Biphenylylpropionic acid derivative and pharmaceutical composition containing the same” (priority 1983, dated 1988)
Like-named read-outs stand apart in the source and are kept apart here.

Columns and labels:
in vivo = details: mouse, po
Method: (§3) Eight male SLC-ddY mice 5 week old weighing 25 to 30 g. were used as one group. The compound to be tested was orally administered using a stomach tube. The animals were kept under observation for 2 weeks. The numbers of dead animals were counted and the LD50 values were calculated by the method of Litchfield Wilcoxon.

[1] = Gastric ulceration (gastric irritation test); format: in vivo, Wistar male rats; details: rat, in vivo, po
Method: (§1) Five Wistar male rats weighing about 150 g. were used as one group. The rats were fasted for 24 hours before the test.
(§2) Six hours after orally administration of the compounds to be tested, there was observed an existence of gastric ulcer by the method of Okabe et al (Ohyoyakuri, 16, 241 to 247 (1978)). The UD50 values were calculated from the ulcer incidence of gastric ulcer by the method of Litchfield-Wilcoxon.

[2] = tested on: carrageenan-induced edema; experiment: Inhibitory effect on carrageenan-induced edema; format: in vivo, Wistar male rats; details: Rattus norvegicus
Method: Five Wistar male rats weighing about 150 g. were used as one group. A 1% dispersion of carrageenan was injected intracutaneously into the foot pad of the right hind foot in a dose of 0.1 ml./rat. The compounds to be tested were orally administered to the rats fasted for 15 hours one hour before the carrageenan injection, or intravenously administered 2 hours […] the carrageenan injection. The volume of the foot subjected to the injection was measured by a mercury plethysmography 3 hours after the carrageenan injection on the test by oral route or 2 hours after the carrageenan injection on the test by intravenous route, and the carrageenan-induced edema was estimated from the obtained measurments.

mice = experiment: Acute toxicity; details: 20160 min; for LD50: Table 5, male SLC-ddY mice, orally, 2 weeks observation, Litchfield Wilcoxon
Method: as §3

gastric ulcer = experiment: Gastric ulceration (gastric irritation test); format: in vivo, Wistar male rats; details: for UD50 (50% ulcerative dose): rat, in vivo, po; for UD50, gastric ulcer: Table 3, Wistar male rats, orally, six hours after administration, Litchfield-Wilcoxon
Method: as §1, §2

in vitro = details: human, plasma
Method: Each reaction mixture was incubated at 37° C. for one hour
The free FP formed by esterase in the plasma was extracted with benzene. After treating the extract with N,O-bis(trimethylsilylacetamide) for trimethylsilylation, the obtained material was determined by gas-liquid chromatography.

[3] = Hydrolysis of FP derivatives in rat plasma; format: in vitro ADME; details: Table 4; rat plasma (Compound No. 10), 37° C., one hour, amount corresponding to 50 μg. of FP per 1 ml.; read-out: Hydrolyzing rate
[4] = Table 3, Wistar male rats, orally, six hours after administration, Litchfield-Wilcoxon, read-out: UD50, gastric ulcer
[5] = iv, 2 h, read-out: ED50, carrageenan-induced edema
[6] = iv, read-out: ED50 (50% effective dose), carrageenan-induced edema inhibition
[7] = po, read-out: ED50 (50% effective dose), carrageenan-induced edema inhibition
[8] = po, read-out: ED50, carrageenan-induced edema
[9] = iv, Table 1, rats, i.v., read-out: ED50 (50% effective dose), carrageenan-induced edema inhibition
[10] = iv, Table 2, Wistar male rats, i.v. 2 hours after carrageenan, read-out: ED50, carrageenan-induced edema
[11] = po, Table 1, rats, p.o., read-out: ED50 (50% effective dose), carrageenan-induced edema inhibition
[12] = po, Table 2, Wistar male rats, p.o. one hour before carrageenan, measured 3 hours after carrageenan, read-out: ED50, carrageenan-induced edema

| SMILES | LD50 at 336 h (in vivo) [mg/kg] | TD50 at 6 h [1, 4] [mg/kg] | ED50 [2, 5] [mg/kg] | ED50 [2, 6] [mg/kg] | ED50 [2, 7] [mg/kg] | ED50 [2, 8] [mg/kg] | TD50 at 6 h [1] [mg/kg] | ED50 [2, 9] [mg/kg] | ED50 [2, 10] [mg/kg] | ED50 [2, 11] [mg/kg] | ED50 [2, 12] [mg/kg] | other results |
| --- | --- | --- | --- | --- | --- | --- | --- | --- | --- | --- | --- | --- |
| CC(=O)OC(C)OC(=O)C(C)c1ccc(-c2ccccc2)c(F)c1 (centres unmarked) [Compound 1, 1-(Acetoxy)ethyl 2-(2-fluoro-4-biphenylyl)propionate] | 650 | 2.5 | 0.05 | 0.05 | 0.5 | 0.5 |  |  |  |  |  |  |
| CCC(=O)OC(C)OC(=O)C(C)c1ccc(-c2ccccc2)c(F)c1 (centres unmarked) [Compound 2, 1-(Propionyloxy)ethyl 2-(2-fluoro-4-biphenylyl)propionate] | 800 | 3 | 0.06 | 0.06 | 0.7 | 0.7 |  |  |  |  |  |  |
| CC(OC(=O)C(C)C)OC(=O)C(C)c1ccc(-c2ccccc2)c(F)c1 (centres unmarked) [Compound 3, 1-(isobutyryloxy)ethyl 2-(2-fluoro-4-biphenylyl)propionate] | 880 | 5 | 0.1 | 0.1 | 1.5 | 1.5 |  |  |  |  |  |  |
| CC(OC(=O)C(C)c1ccc(-c2ccccc2)c(F)c1)OC(=O)C(C)(C)C (centres unmarked) [Compound 4, 1-(pivaloyloxy)ethyl 2-(2-fluoro-4-biphenylyl)propionate] | > 1000 |  |  |  |  |  | 10 | 0.6 | 0.6 | 2.5 | 2.5 | LD50 (50% lethal dose) (mice; mouse, in vivo, po): > 1000 mg/kg |
| CCCCCCCCCCCCCCCC(=O)OC(C)OC(=O)C(C)c1ccc(-c2ccccc2)c(F)c1 (centres unmarked) [Compound 5, 1-(palmitoyloxy)ethyl 2-(2-fluoro-4-biphenylyl)propionate] | > 1000 |  |  |  |  |  | > 10 | > 5 | > 5 | > 5 | > 5 | UD50 (50% ulcerative dose) (gastric ulcer; 6 h): > 10.0 mg/kg; LD50 (50% lethal dose) (mice; mouse, in vivo, po): > 1000 mg/kg |
| CCC(OC(C)=O)OC(=O)C(C)c1ccc(-c2ccccc2)c(F)c1 (centres unmarked) [Compound 6, 1-(Acetoxy)propyl 2-(2-fluoro-4-biphenylyl)propionate] | 900 | 5 | 0.1 | 0.1 | 1.5 | 1.5 |  |  |  |  |  |  |
| C/C=C/C(=O)OC(C)OC(=O)C(C)c1ccc(-c2ccccc2)c(F)c1 (centres unmarked) [Compound 7, 1-(crotonoyloxy)ethyl 2-(2-fluoro-4-biphenylyl)propionate] | 800 | 4 | 0.08 | 0.08 | 0.9 | 0.9 |  |  |  |  |  |  |
| CC(C)=CC(=O)OC(C)OC(=O)C(C)c1ccc(-c2ccccc2)c(F)c1 (centres unmarked) [Compound 8, [1-(3,3-dimethylacryloyloxy)ethyl]2-(2-fluoro-4-biphenylyl)propionate] | 1000 |  |  |  |  |  | 7 | 0.3 | 0.3 | 2.5 | 2.5 |  |
| CC=CC=CC(=O)OC(C)OC(=O)C(C)c1ccc(-c2ccccc2)c(F)c1 (centres unmarked) [Compound 9, [1-(2,4-Hexadienoyloxy)ethyl]2-(2-fluoro-4-biphenylyl) propionate] | 1000 |  |  |  |  |  | 7 | 0.3 | 0.3 | 2 | 2 | metabolised at 1 h (in vitro): 20.4% |
| CC(C(=O)OC1C(=O)OCC1(C)C)c1ccc(-c2ccccc2)c(F)c1 (centres unmarked) [Compound 10, 3,3-Dimethyl-2-[2-(2-fluoro-4-biphenylyl)propionyloxy]-γ-butyrolactone] | 670 | 2.5 | 0.05 | 0.05 | 0.5 | 0.5 |  |  |  |  |  | metabolised at 1 h [3]: 72.3% |
| CC(C(=O)O)c1ccc(-c2ccccc2)c(F)c1 (centres unmarked) [FP, 2-(2-fluoro-4-biphenylyl)-propionic acid] |  |  |  |  |  |  |  |  |  |  |  | UD50, gastric ulcer (gastric ulcer; 360 min): 1.0 mg/kg; LD50 (50% lethal dose) (mice; Table 1, mice, p.o.): 440 mg/kg; LD50 (mice): 440 mg/kg |
| COc1ccc2c(c1)c(CC(=O)OCC(=O)O)c(C)n2C(=O)c1ccc(Cl)cc1 [acemethacin] |  |  |  |  |  |  |  |  |  |  |  | UD50 (50% ulcerative dose) (gastric ulcer; 360 min): 17.5 mg/kg; LD50 (50% lethal dose) (mice; Table 1, mice, p.o.): 18.0 mg/kg; LD50 (mice): 18.0 mg/kg |
| COc1ccc2c(c1)c(CC(=O)O)c(C)n2C(=O)c1ccc(Cl)cc1 [indomethacin] |  |  |  |  |  |  |  |  |  |  |  | UD50, gastric ulcer (gastric ulcer; 360 min): 5.0 mg/kg; LD50 (50% lethal dose) (mice; Table 1, mice, p.o.): 14.0 mg/kg; LD50 (mice): 14.0 mg/kg |
